Measured values published in publication PMC6934184, “Selective DNA-PKcs inhibition extends the therapeutic index of localized radiotherapy and chemotherapy” (The Journal of Clinical Investigation, 2019).

Molecular target: T1, TNK2 (ACK) (Homo sapiens, UniProt Q07912)
T1 construct: purchased Thermo Fisher Scientific (Life Technologies) SelectScreen
Assay: SelectScreen LanthaScreen
Assay type: binding
Conditions: read-out: % displacement
Method in brief: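 Percent values come from Thermo SelectScreen profiling of NU5455, combining activity and binding assays. CSF1R was run in Z'LYTE format at Km app ATP, and CAMK1 in Adapta format with ATP listed at 10.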

T1 sequence (Q07912 whole entry): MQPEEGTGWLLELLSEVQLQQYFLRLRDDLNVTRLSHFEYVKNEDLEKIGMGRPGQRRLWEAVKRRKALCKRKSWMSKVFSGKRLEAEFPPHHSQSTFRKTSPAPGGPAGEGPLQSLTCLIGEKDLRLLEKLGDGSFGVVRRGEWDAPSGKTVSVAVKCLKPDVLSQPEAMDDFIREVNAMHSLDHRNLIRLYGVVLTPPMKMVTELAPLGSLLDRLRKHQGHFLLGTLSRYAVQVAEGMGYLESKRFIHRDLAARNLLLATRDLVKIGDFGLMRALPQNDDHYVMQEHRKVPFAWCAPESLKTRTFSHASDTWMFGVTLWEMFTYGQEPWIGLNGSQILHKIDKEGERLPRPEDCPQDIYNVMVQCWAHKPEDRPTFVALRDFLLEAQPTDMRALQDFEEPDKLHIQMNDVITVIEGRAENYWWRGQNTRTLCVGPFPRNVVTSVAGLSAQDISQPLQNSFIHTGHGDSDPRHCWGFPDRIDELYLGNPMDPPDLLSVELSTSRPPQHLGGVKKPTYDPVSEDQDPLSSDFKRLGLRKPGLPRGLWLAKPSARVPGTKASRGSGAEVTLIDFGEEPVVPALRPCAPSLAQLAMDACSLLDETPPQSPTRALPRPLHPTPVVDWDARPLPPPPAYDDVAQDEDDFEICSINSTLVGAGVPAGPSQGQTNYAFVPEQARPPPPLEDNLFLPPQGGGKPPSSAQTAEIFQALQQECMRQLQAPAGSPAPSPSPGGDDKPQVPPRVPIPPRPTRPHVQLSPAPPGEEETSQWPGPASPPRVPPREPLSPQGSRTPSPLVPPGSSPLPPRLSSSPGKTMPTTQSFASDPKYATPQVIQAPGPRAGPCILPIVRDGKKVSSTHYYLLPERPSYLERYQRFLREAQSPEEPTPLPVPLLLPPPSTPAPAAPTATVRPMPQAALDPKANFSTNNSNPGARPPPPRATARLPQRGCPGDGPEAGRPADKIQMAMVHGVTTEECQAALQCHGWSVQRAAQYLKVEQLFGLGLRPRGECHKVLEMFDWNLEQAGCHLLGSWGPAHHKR

`CN(C(=O)CN1CCOCC1)c1ccc2sc3c(-c4cccc5c(=O)cc(N6CC7CCC(C6)O7)oc45)cccc3c2c1` [NU5455] gave an inhibition at 1 µM of 1.8%.
